Assay results as given in patent publication US6156757A, “1,2,3,4-tetrahydro-benzofuro[3,2-C]pyridine derivatives” (Janssen Pharmaceutica N.V., priority 1997, dated 2000).

Legend:
[1] = test system: α2 -adrenoceptor; experiment: Xylazine-induced loss of righting reflex in rats; assay type: in vivo; details: one hour before xylazine 15 mg/kg i.v., male rats, lowest tested dose at which at least 66% of animals showed no loss of righting reflex
Experimental: This test is based upon the fact that centrally acting α2 -adrenoceptor antagonists reverse the loss of righting reflex induced by an intravenous injection of the α2 agonist xylazine. One hour before injection of xylazine (15 mg/kg, i.v.), male rats (200-250 g) were pretreated with a test compound (er os (p.o.) or subcutaneously (s.c.)) or solvent.

[2] = target: T1, cloned human α2A receptors (Homo sapiens, UniProt P08913); experiment: In vitro binding affinity for α2A receptors (3H-rauwolscine competition binding); details: at a test concentration of 10^-8 M or less; CHO cell expressing cloned human α2A receptors
T1 sequence (P08913 1-465): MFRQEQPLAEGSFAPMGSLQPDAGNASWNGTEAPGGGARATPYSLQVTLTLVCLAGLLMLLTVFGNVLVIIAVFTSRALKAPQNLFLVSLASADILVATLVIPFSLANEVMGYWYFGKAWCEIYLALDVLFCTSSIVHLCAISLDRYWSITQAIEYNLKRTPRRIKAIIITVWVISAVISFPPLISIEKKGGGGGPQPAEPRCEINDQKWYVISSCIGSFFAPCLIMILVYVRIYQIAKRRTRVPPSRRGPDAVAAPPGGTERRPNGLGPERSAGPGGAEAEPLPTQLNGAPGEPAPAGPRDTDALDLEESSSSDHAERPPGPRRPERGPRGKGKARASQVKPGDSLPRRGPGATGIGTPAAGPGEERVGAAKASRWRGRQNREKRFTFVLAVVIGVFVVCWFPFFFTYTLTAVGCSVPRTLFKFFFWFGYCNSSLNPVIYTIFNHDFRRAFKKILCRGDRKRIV
Experimental: The interaction of the compounds of formula (I) with α2 receptors was assessed in in vitro radioligand binding experiments.
In general, a low concentration of a radioligand with a high binding affinity for a particular receptor is incubated with a sample of a tissue preparation enriched in a particular receptor or with a preparation of cells expressing cloned human receptors in a buffered medium. During the incubation, the radioligand binds to the receptor. When equilibrium of binding is reached, the receptor bound radioactivity is separated from the non-bound radioactivity, and the receptor bound activity is counted. The interaction of the test compounds with the receptor is assessed in competition binding experiments. Various concentrations of the test compound are added to the incubation mixture containing the receptor preparation and the radioligand. Binding of the radioligand will be inhibited by the test compound in proportion to its binding affinity and its concentration.
The radioligand used for α2A receptor binding is ^3 H-rauwolscine and the receptor preparation used is the Chinese Hamster Ovary (CHO) cell expressing cloned human α2A receptors.

[3] = target: T2, cloned human α2C receptors (Homo sapiens, UniProt P18825); experiment: In vitro binding affinity for α2C receptors (3H-rauwolscine competition binding); details: at a test concentration of 10^-8 M or less; CHO cell expressing cloned human α2C receptors
T2 construct: expressed in transfected cells; host or cells: CHO cells
T2 sequence (P18825 1-462): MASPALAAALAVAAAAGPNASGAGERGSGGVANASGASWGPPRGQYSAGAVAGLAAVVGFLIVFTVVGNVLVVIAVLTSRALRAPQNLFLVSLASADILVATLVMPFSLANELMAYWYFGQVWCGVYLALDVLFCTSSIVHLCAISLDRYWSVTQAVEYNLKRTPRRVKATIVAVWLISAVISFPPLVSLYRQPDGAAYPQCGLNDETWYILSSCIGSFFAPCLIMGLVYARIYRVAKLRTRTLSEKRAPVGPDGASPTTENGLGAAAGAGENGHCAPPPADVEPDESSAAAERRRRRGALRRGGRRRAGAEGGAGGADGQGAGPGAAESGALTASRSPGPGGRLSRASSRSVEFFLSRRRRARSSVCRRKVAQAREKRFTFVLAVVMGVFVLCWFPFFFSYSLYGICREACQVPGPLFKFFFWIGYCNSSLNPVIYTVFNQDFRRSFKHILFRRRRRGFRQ

| Structure (SMILES) | LAD in mg/kg (lowest active dose for xylazine antagonism) ([1]; p.o.) | LAD in mg/kg (lowest active dose for xylazine antagonism) ([1]; s.c.) | inhibition [2] | inhibition at up to 0.01 µM [3] |
| --- | --- | --- | --- | --- |
| Cc1ccc(C(=O)N2CCCC(CN3CCc4oc5ccccc5c4C3)C2)cc1 (stereo not shown) [Compound 57] | 10.00 mg/kg | – | – | – |
| O=c1c(CCN2CCc3oc4ccccc4c3C2)c(Cc2ccccc2)nc2ccccn12 [Compound 29] | – | 10.00 mg/kg | – | – |
| Cc1ccn2c(=O)c(CCN3CCc4oc5ccccc5c4C3)c(C)nc2c1 [Compound 36] | – | 0.63 mg/kg | – | – |
| Cc1nc2ccccn2c(=O)c1CCN1CCc2oc3c([N+](=O)[O-])cccc3c2C1 [Compound 22] | 10.00 mg/kg | – | – | – |
| Cc1cc2nc(C)c(CCN3CCc4oc5ccccc5c4C3)c(=O)n2o1 [Compound 4] | 1.25 mg/kg | – | – | – |
| Cc1nc2cccc(C)n2c(=O)c1CCN1CCc2oc3ccccc3c2C1 [Compound 39] | – | 0.63 mg/kg | – | – |
| Cc1ccc2oc3c(c2c1)CN(CCc1c(C)nc2sccn2c1=O)CC3 [Compound 19] | – | 10.00 mg/kg | – | – |
| Cc1nc2c(O)cccn2c(=O)c1CCN1CCc2oc3ccccc3c2C1 [Compound 35] | – | 10.00 mg/kg | – | – |
| CSc1nc(C)c(CCN2CCc3oc4ccccc4c3C2)c(=O)n1C [Compound 55] | 10.00 mg/kg | – | > 50% | > 50% |
| Cc1ccc(C(=O)N2CCC(CN3CCc4oc5ccccc5c4C3)CC2)cc1 [Compound 58, 4-[(3,4-dihydrobenzofuro[3,2-c]pyridin-2(1H)-yl)methyl]-1-(4-methylbenzoyl)piperidine] | 2.50 mg/kg | – | – | > 50% |
| Cc1nc2ccc(Cl)cn2c(=O)c1CCN1CCc2oc3ccccc3c2C1 [Compound 32] | – | 0.04 mg/kg | – | – |
| Cc1nc2c(Cl)cc(Cl)cn2c(=O)c1CCN1CCc2oc3ccccc3c2C1 [Compound 40] | 10.00 mg/kg | – | – | – |
| Cc1nc2ccccn2c(=O)c1CCN1CCc2oc3ccccc3c2C1 [Compound 3, 3-[2-[3,4-dihydrobenzofuro[3,2-c]pyridin-2(1H)-yl]ethyl]-2-methyl-4H-pyrido[1,2-a]pyrimidin-4-one] | 0.31 mg/kg | 0.08 mg/kg | – | – |
| Cc1nc2ccccn2c(=O)c1CCN1CCc2oc3ccc(F)cc3c2C1 [Compound 17] | 10.00 mg/kg | 10.00 mg/kg | > 50% | – |
| Cc1nc2n(c(=O)c1CCN1CCc3oc4ccccc4c3C1)CCCC2C (stereo not shown) [Compound 13] | – | – | – | > 50% |
| COc1cccn2c(=O)c(CCN3CCc4oc5ccccc5c4C3)c(C)nc12 [Compound 65, 3-[2-[3,4-dihydrobenzofuro[3,2-c]-pyridin-2(1H)-yl]ethyl]-9-methoxy-2-methyl-4H-pyrido[1,2-a]pyrimidin-4-one] | – | 0.63 mg/kg | > 50% | > 50% |
| Cc1nc2n(c(=O)c1CCN1CCc3oc4ccccc4c3C1)CCCS2 [Compound 28] | – | 0.63 mg/kg | – | – |
| Cc1nc2ccccn2c(=O)c1CCN1CCc2oc3c(Cl)cccc3c2C1 [Compound 23] | – | 2.50 mg/kg | – | > 50% |
| Cc1nc2sccn2c(=O)c1CCN1CCc2oc3ccccc3c2C1 [Compound 1, 6-[[3,4-dihydrobenzofuro[3,2-c]pyridin-2(1H)-yl]ethyl]-7-methyl-5H-thiazolo-[3,2-a]pyrimidin-5-one] | – | 0.63 mg/kg | – | – |

| Structure (SMILES) | LAD in mg/kg (lowest active dose for xylazine antagonism) ([1]; p.o.) | LAD in mg/kg (lowest active dose for xylazine antagonism) ([1]; s.c.) | inhibition [2] | inhibition at up to 0.01 µM [3] |
| --- | --- | --- | --- | --- |
| O=c1oc2ccccc2n1CCCN1CCc2oc3ccccc3c2C1 [Compound 60] | 10.00 mg/kg | – | > 50% | – |
| Cc1nc2sccn2c(=O)c1CCCN1CCc2oc3ccccc3c2C1 [Compound 27] | – | 10.00 mg/kg | – | – |
| Cc1ccc2nc(C)c(CCN3CCc4oc5ccccc5c4C3)c(=O)n2c1 [Compound 34, 3-[2-[3,4-dihydrobenzofuro[3,2-c]pyridin-2(1H)-yl]ethyl]-2,7-dimethyl-4H-pyrido-[1,2-a]pyrimidin-4-one] | – | 0.16 mg/kg | > 50% | > 50% |
| c1ccc2sc(NCCN3CCc4oc5ccccc5c4C3)nc2c1 [Compound 51, N-2-benzothiazole-3,4-dihydrobenzofuro[3,2-c]pyridin-2(1H)-ethanamine (E)-2-butenedioate (1:1)] | – | 10.00 mg/kg | – | – |
| Cc1nc2ccccn2c(=O)c1CCCN1CCc2oc3ccccc3c2C1 [Compound 26] | – | 10.00 mg/kg | – | – |
| Cc1nc2n(c(=O)c1CCN1CCc3oc4ccc(F)cc4c3C1)CCCC2 [Compound 18] | – | 10.00 mg/kg | > 50% | – |
| c1ccc2sc(NCCCCN3CCc4oc5ccccc5c4C3)nc2c1 [Compound 50] | – | 10.00 mg/kg | – | > 50% |
| Cc1nc2sccn2c(=O)c1CCN1CCc2oc3ccc(F)cc3c2C1 [Compound 16] | 10.00 mg/kg | – | – | – |
| Cc1nc2n(c(=O)c1CCN1CCc3oc4ccccc4c3C1)CCCC2 [Compound 2] | 1.25 mg/kg | – | – | – |
| Cc1nc2n(c(=O)c1CCN1CCc3oc4ccccc4c3C1)CCCC2C (stereo not shown) [Compound 25] | 10.00 mg/kg | – | – | – |
| O=c1c(CCN2CCc3oc4ccccc4c3C2)c(Cc2ccccc2)nc2ccccn12 [Compound 14] | – | – | – | > 50% |
| Cc1nc2n(C)c(C)cn2c(=O)c1CCN1CCc2oc3ccccc3c2C1 [Compound 8] | – | – | – | > 50% |
| Cn1c(=O)c2c(ncn2CCN2CCc3oc4ccccc4c3C2)n(C)c1=O [Compound 59] | – | 10.00 mg/kg | – | – |
| Cc1cc(C)n2c(=O)c(CCN3CCc4oc5ccccc5c4C3)c(C)nc2c1 [Compound 37] | – | 10.00 mg/kg | – | – |
| Cc1nc2n(c(=O)c1CCN1CCc3oc4ccccc4c3C1)CCS2 [Compound 6] | – | 0.63 mg/kg | – | – |
| Cc1nc2scc(C)n2c(=O)c1CCN1CCc2oc3ccccc3c2C1 [Compound 5, 6-[[3,4-dihydrobenzofuro[3,2-c]pyridin-2(lH)-yl]ethyl]-3,7-dimethyl-5H-thiazolo-[3,2-a]pyrimidin-5-one] | – | 0.63 mg/kg | – | – |
| Cc1nc2ccccn2c(=O)c1CCN1CCc2oc3ccc(Cl)cc3c2C1 [Compound 24] | 10.00 mg/kg | – | – | – |
| c1ccc2sc(NCCCN3CCc4oc5ccccc5c4C3)nc2c1 [Compound 49] | – | 10.00 mg/kg | > 50% | – |
